# From patent US20240317722A1, “HETEROARYL-3-PIPERIDINEDIONE COMPOUND AND USE THEREOF” (Medshine Discovery Inc., priority 2021, published 2024)
# How the values were obtained:
# [1] = tested on: human triple-negative breast cancer MDA-MB-231 cells; assay: In vivo pharmacodynamic study, subcutaneous xenograft tumor Balb/c nude mouse model of MDA-MB-231 cells; design: species or system Balb/c nude mice; settings: for Tumor volume (Day 0): Day 0 (grouping); for in vivo efficacy on the xenograft tumor model (in words): MDA-MB-231 xenograft, oral
# Protocol: Cell culture: Human triple-negative breast cancer MDA-MB-231 cells (ATCC-HTB-26) were cultured in monolayer in vitro. The culture conditions were RPMI-1640 medium with 10% fetal bovine serum in an incubator at 37° C. and 5% CO2. Conventional digestion with trypsin-EDTA was performed once every two days for passage. When the cell saturation was 80%-90% and the number met the requirement, the cells were collected, counted, and inoculated.
# Assay animals: Balb/c nude mice, female, 6 weeks old upon arrival, purchased from Shanghai Bikai Experimental Animal Co., Ltd.
# Cell inoculation: 0.2 mL (5×10^6 cells) of MDA-MB-231 cells (with matrigel, v/v 1:1) were subcutaneously inoculated into the right back of each mouse. The grouping for administration was started when the average tumor volume reached 110 mm^3. One dosing cycle was seven days, with administration once a day and an interval of 24 hours. The test compound was administered orally for a total of four cycles. The dosages of test compound WX005 were 10 mg/kg, 30 mg/kg and 100 mg/kg respectively, and the dosage of WX013 was 30 mg/kg respectively. Tumor diameter was measured twice a week with a vernier caliper. Tumor volume was calculated by the following formula: V=0.5a×b^2, where a and b are the long and short diameters of the tumor, respectively. The anti-tumor efficacy of compounds was evaluated by TGI (%) or relative tumor proliferation rate T/C (%). Relative tumor proliferation rate T/C (%)=TRTV/CRTV×100% (TRTV: average RTV of the treatment group; CRTV: average RTV of the negative control group). The relative tumor volume (RTV) was calculated based on the results of tumor measurement by the calculation formula: RTV=Vt/V0, where V0 is the tumor volume measured at grouping for administration (i.e., D0), and Vt is the tumor volume at a certain measurement, and TRTV and CRTV are taken on the same day.
# GSPT1 = GSPT1 (Homo sapiens, UniProt P15170+Q96SW2); assay: Target protein degradation in HEK293T-LgBiT_GSPT1-nHiBiT cells (HiBiT luminescence); format: cell-based; design: expressed in transfected cells; settings: 16 to 18 hours; for Dmax: read-out: Max. DR (maximum degradation rate)
# Protocol: This assay was performed to detect the degradation effect of the test compound on the target protein GSPT1 in HEK293T-LgBiT cells.
# • 1. Preparation of compounds • (1). Dissolving the powder of the test compound with DMSO to 10 mM as the storage concentration, and using a pipette to manually draw 9 μL of 10 mM or 3 mM test compound to columns 1 and 13 of a LDV plate; • (2). Using multidrop Combi to add 6 μL of DMSO to columns 2-12 and 14-24; • (3). Using Bravo to dilute the test compound 3 times (3 μL+6 μL) from columns 1 to 11 and 13 to 23; • (4). According to the layout of the plate, using Echo to transfer 25 nL of compound solution (columns 1-24 of the LDV plate) to the assay plate; • (5). Using Echo to transfer 25 nL of 1 mM positive control solution to the assay plate as a 100% degradation control (i.e. LC, HPE), and to transfer 25 nL of DMSO to the assay plate as a 0% control (i.e. HC, ZPE). • 2. Cell plating • (1). Discarding the cell culture medium, and washing the cells once with DPBS; then the cells were trypsinized, counted, and used to prepare a cell suspension of 4×10^5 cells/mL; • (2). Using MultiDrop Combi to add 25 μL/well of cell suspension at medium speed to the assay plate containing the test compound; • (3). Putting the assay plate containing cells back into the incubator and culturing it at 37° C. and 5% CO2 for 16 to 18 hours.
# • (1). Using MultiDrop Combi to add 25 μL/well of detection reagent (NanoGlo lysis solution+substrate+LgBit protein) to the assay plate at high speed, and shaking for 10 minutes; • (2). Centrifuging at 2000 rpm×1 min to remove bubbles; • (3). Reading the plate using Envision, US Luminescence detection method.
# The following formula was used to calculate the degradation rate (DR) of the test compound: DR (%)=(RLU of vehicle control−RLU of compound)/(RLU of vehicle control−RLU of positive control)*100%, wherein the vehicle control was a blank control. The degradation rates of compounds at different concentrations were calculated in Excel, and then XLFit software was used to obtain inhibition curves and to calculate relevant parameters, including the minimum degradation rate, maximum degradation rate and DC50.
# GSPT1, sequence (P15170 whole entry): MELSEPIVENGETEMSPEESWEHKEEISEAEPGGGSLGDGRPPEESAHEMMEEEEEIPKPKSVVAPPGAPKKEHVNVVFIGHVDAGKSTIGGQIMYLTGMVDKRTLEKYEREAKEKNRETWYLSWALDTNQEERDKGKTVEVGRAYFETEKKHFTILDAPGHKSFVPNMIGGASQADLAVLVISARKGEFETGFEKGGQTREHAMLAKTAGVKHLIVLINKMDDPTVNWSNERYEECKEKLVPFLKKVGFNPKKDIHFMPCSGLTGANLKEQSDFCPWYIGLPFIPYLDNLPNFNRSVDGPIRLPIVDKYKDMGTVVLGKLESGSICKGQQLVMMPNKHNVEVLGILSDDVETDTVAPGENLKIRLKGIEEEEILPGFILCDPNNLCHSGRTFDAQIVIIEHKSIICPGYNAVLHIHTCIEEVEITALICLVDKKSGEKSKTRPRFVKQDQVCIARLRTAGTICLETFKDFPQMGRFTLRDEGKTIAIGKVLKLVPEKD
# GSPT1, sequence (Q96SW2 whole entry): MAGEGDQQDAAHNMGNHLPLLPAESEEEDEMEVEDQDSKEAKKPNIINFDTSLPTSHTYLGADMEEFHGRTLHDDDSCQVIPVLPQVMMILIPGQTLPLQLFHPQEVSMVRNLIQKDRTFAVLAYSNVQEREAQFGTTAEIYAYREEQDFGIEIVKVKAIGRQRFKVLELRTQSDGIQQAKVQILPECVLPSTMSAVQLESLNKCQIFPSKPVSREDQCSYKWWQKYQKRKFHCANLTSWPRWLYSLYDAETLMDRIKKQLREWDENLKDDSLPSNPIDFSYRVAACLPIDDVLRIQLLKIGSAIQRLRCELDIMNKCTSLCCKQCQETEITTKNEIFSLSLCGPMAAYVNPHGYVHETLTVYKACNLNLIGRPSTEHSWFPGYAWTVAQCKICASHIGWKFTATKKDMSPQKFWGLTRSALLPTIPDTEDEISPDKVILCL
# GSPT1, sequence (Q16531 whole entry partner): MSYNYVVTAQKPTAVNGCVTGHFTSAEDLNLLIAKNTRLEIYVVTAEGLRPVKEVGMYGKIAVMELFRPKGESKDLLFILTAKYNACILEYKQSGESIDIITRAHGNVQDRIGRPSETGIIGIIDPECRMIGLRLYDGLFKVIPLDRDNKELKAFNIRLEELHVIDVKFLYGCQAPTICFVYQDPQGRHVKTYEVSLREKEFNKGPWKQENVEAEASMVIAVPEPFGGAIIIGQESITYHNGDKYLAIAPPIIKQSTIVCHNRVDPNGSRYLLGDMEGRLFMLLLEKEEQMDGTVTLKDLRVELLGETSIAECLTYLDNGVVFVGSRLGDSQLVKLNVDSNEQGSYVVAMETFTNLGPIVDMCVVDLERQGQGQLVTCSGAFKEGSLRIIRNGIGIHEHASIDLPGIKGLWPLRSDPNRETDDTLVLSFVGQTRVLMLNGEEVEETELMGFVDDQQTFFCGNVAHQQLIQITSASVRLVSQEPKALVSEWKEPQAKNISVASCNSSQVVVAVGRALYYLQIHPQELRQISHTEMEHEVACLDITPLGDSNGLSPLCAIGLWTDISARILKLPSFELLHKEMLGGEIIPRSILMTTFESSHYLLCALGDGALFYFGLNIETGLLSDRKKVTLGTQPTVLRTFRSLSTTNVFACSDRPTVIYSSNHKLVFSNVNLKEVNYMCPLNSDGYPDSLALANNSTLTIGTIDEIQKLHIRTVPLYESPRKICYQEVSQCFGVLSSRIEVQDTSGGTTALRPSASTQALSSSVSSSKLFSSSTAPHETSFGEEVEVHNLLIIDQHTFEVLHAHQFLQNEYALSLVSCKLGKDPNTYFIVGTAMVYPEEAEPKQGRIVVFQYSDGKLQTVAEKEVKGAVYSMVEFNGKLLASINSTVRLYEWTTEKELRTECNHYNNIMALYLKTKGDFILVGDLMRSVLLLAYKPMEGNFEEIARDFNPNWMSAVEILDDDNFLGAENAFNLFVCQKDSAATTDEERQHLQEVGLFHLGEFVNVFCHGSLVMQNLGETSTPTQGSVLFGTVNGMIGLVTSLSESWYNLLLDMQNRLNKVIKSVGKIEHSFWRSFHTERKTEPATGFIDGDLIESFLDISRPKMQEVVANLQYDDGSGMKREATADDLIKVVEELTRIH
SMILES,Tumor volume (Day 0) ([1]; 10 mg/kg orally once a day) [mm^3],Relative tumor proliferation rate T/C (Day 27) ([1]; 10 mg/kg orally once a day) [%],TGI (Day 27) ([1]; 10 mg/kg orally once a day) [%],Tumor volume (Day 27) ([1]; 10 mg/kg orally once a day) [mm^3],in vivo efficacy on the xenograft tumor model (in words) [1],DC50 (GSPT1) [nM],Dmax (GSPT1) [%],Tumor volume (Day 0) ([1]; 30 mg/kg orally once a day) [mm^3],Relative tumor proliferation rate T/C (Day 27) ([1]; 30 mg/kg orally once a day) [%],TGI (Day 27) ([1]; 30 mg/kg orally once a day) [%],Tumor volume (Day 27) ([1]; 30 mg/kg orally once a day) [mm^3]
COCCOc1cc(NC(=O)NCc2ccc3c(C4CCC(=O)NC4=O)coc3c2)cc(Cl)c1C (centres unmarked) [WX005],108.29,0,114.91,0,significant tumor shrinkage effect,2.51,100,,,,
COCCOc1cc(NC(=O)NCc2ccc3c(C4CCC(=O)NC4=O)noc3c2)cc(Cl)c1C (centres unmarked) [WX013],,,,,significant tumor shrinkage effect,1.07,100,108.69,0,114.97,0
